Results as given in patent US20130245110A1, “USE FOR CANNABINOIDS” (priority 2008, published 2013).
Where “and” joins values, the source holds several entries; their conditions need not be identical. Equal entries are not always repeated.

What was measured:
pancreatic lipase = molecular target: T1, pancreatic lipase (Homo sapiens, UniProt P16233); settings: subjects eating a 30% fat diet; cited from earlier work
T1 construct: host or cells: endogenous enzyme in subjects (in vivo)
T1 sequence (P16233 17-465): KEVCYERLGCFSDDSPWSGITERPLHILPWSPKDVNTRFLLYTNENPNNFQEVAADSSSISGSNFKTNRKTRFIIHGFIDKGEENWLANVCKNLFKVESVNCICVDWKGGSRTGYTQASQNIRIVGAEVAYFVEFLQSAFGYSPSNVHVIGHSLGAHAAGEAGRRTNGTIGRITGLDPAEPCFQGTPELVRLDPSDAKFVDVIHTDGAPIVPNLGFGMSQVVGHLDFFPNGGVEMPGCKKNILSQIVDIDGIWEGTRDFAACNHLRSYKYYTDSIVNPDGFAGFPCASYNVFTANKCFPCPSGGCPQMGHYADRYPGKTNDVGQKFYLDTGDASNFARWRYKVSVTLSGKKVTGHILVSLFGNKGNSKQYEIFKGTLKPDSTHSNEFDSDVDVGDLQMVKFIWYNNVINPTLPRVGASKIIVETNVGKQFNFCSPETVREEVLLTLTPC

[1] = tested on: dietary induced obese (DIO) mouse model; test: 24 h energy expenditure by indirect calorimetry, chronic dosing study; type: in vivo; settings: DIO mice; 10 mg·kg−1 p.o.; relative to control, first 12 h post-dosing
Text: The C57B1/6 mouse fed on a high fat diet for around 12 weeks is a standard model used to evaluate agents likely to affect metabolic disease including obesity, type II diabetes and dyslipidaemia. Thus both potential anti-obesity effects and effects on diabetic and dyslipidaemia parameters will be measured.
(§1) Once the acute studies were complete the mice were grouped in two groups of five mice for the chronic dosing study. Dosing was daily by oral gavage at 09:00-10:00.

[2] = tested on: dietary induced obese (DIO) mouse model; test: Thermic response to food (energy expenditure after Complan meal), chronic dosing study; type: in vivo; set-up: Thermic response to food: unit not given here; settings: DIO mice, days 15-17; for Thermic response to food: 10 mg·kg−1 p.o.
Text: as §1
Energy expenditure consists of basal metabolic rate, exercise-induced energy expenditure, and non-exercise thermogenesis. The latter is the most likely area to be affected by anti-obesity agents. Non-exercise thermogenesis includes the thermic response to food, which in rodents can be measured by examining energy expenditure in response to a meal. This was measured after an oral dose of complan (see methods).

rat isolated aortae = test: In vitro vascular studies by wire myography

In the case of `CCCCCCCCCCC[C@@H](C[C@@H]1OC(=O)[C@H]1CCCCCC)OC(=O)[C@H](CC(C)C)NC=O` [Orlistat], the “Block of triacylglycerol hydrolysis” value (pancreatic lipase) is given as 30%.

For `Cc1c(C(=O)NN2CCCCC2)nn(-c2ccc(Cl)cc2Cl)c1-c1ccc(Cl)cc1` [rimonabant, reference compound], the “Effect on 24 h energy expenditure (days 10-12)” value [1] was “small increase in energy expenditure”, the “Thermic response to food” value ([2]; Hour 0.44) was 1.11 and 1.21 and 2.21 and the “Thermic response to food” value ([2]; Hour 0.67) was 1.38 and 1.56 and 2.67. The “Thermic response to food” value ([2]; Hour 4.00) was 1.56 and 2.90 and 3.09 and the “Thermic response to food, effect in words” value ([2]; chronic-study doses (rimonabant 10, pure THCV 0.3 mg·kg−1 p.o.)) was “without effect”.

With `COc1ccc(CCN(C)CCCC(C#N)(c2ccc(OC)c(OC)c2)C(C)C)cc1OC` (stereo not shown) [verapamil, reference compound] the “Vasorelaxation of pre-constricted vessels” value (rat isolated aortae) was “significant vasorelaxation”.
